According to patent publication US5298494A, “Monosaccharides having anti-proliferation and anti-inflammatory activity, compositions and uses thereof” (Greenwich Pharmaceuticals Incorporated, priority 1993, dated 1994):
Where two headings read alike, the source gives them in different places.

Columns and labels:
[1] = tested on: T cell proliferation in mouse spleen cell mixed lymphocyte cultures; assay: Mixed Lymphocyte Reaction (MLR) assay; type: cell-based, mouse (Balb/c responder, C57B1/6 stimulator); conditions: for inhibition at 3 µM / inhibition at 10 µM / inhibition at 30 µM / inhibition at 100 µM / inhibition at 300 µM: Mus musculus, Lymphocyte, read-out: % Change From Control, MLR
Description: The pharmacologic assays performed to determine the immunomodulatory effects of the experimental compounds in vitro include the Mixed Lymphocyte Reaction (MLR) and the ConA blastogenesis assay. These assays were used to determine the inhibitory effects of the compounds of the invention on T lymphocyte activation and proliferation. Since inflammation at the cellular level is characterized by T lymphocyte recruitment, activation and proliferation, these assays are appropriate to use as screens for novel compounds having therapeutic potential in the treatment of disorders in which inflammatory mechanisms are involved.
The MLR is a classical assay used to measure T cell function by studying the proliferative response of T cells which are activated in vitro by genetically disparate stimulator cells. This is accomplished by co-culturing spleen cells from two different strains of mice. Splenic T cell proliferation occurs as a result of cellular activation signals generated by the ongoing cellular interactions.
Balb/c mice were euthanised by cervical dislocation and their spleens removed. Single cell suspensions of the spleens were prepared in culture medium (hepes buffered RPMI-1640 supplemented with 10% fetal calf serum, 2mM glutamine, 500 units penicillin/ streptomycin, and 4×10^-5 M 2-mercaptoethanol) using a Teflon pestle. The cells were centrifuged at 1500 rpm and the pellets resuspended in ACT (0.15M tris, 0.14M ammonium chloride, pH 7.2) in order to lyse the red blood cells. After a 5 minute incubation in a 37 C. waterbath, the cells were resuspended in culture medium and counted. C57B1/6 spleen cells which were used as stimulator cells, were also prepared by this method. The stimulator cells were treated with 100 ug/ml of mitomycin c for 1 hour at 37 C. (to inhibit stimulatory cell proliferation) and were then washed 5 times in culture medium. The proliferative responses were measured by culturing 2.5×10^5 responder cells with 5×10^5 stimulatory cells in 96 well microtiter plates in the presence or absence of various doses of test compounds or vehicle (DMSO). Syngeneic control cultures using mitomycin c treated Balb/c spleen cells as stimulator cells were also run. All cultures were run in triplicate.
Solutions of compounds of the present invention in DMSO were prepared at a stock concentration of 120 Mm. Dilutions were made in culture medium to the following concentrations: 3, 10, 30, 100, and 300 uM. The vehicle (DMSO) was used as a negative control.
After incubation of for 5 days at 37 C. with 5% CO2, the amount of cell proliferation was measured by adding 20 ul of MTT (3-[4,5-dimethylthiazol-2-yl]-2,5diphenyl-tetrazolium bromide) (10 mg/ml in phosphate buffered saline) to each well. Plates were incubated for 4 hours at 37 C., after which 180 ul of 10% sodium dodecyl sulphate in phosphate buffered saline was added. After an overnight incubation, the optical density (OD) of each well was read on a Molecular Devices microplate reader at 570-650 nm. The results were determined by calculating the difference between the means of the allogeneic cultures and the means of the syngenic cultures for each test article concentration. Differences of the test article groups were compared to the control group and the percent change from the control was determined.

[2] = tested on: T lymphocytes (normal mouse spleen cells) stimulated with ConA; assay: Mouse Spleen Cell ConA Blastogenesis Assay; type: cell-based, mouse (C57Bl/6); conditions: Mus musculus, T-lymphocyte; for inhibition at 1 µg/mL: compound 1 ug/ml; for inhibition at 2.5 µg/mL: compound 2.5 ug/ml; for inhibition at 10 µg/mL: compound 10 ug/ml; for inhibition at 25 µg/mL: compound 25 ug/ml; for inhibition at 0.1 µg/mL: compound 0.1 ug/ml
Description: It is well known that several plant lectins, when cultured in vitro with lymphocytes, stimulate cellular activation and proliferation. Concanavolin, (ConA) selectively stimulates the blastogenic response of T lymphocytes.
Six to 8 week old male C57Bl/6 mice were purchased from Harlan Sprague Dawley (Indianapolis, Ind.).
Spleens were removed and were homogenized to obtain a single cell suspension. Erythrocytes were lysed by hypotonic shock. Upon determination of the viability and concentration of the lymphoid cells, they were adjusted to 4×10^6 cells/ml in culture medium (RPMI-1640) supplemented with 10% fetal bovine serum; 100 ug/ml streptomycin; 100 U/ml penicillin, 0.2M hepes buffer; 5×10^-5 M 2-mercaptoethanol and 2 mM glutamine). seeded into microtiter plate wells at 2×10^5 cells/0.050 ml/well. To these cultures were added various doses of experimental compounds and ConA at a final concentration of 4 or 1 ug/ml. Control cultures consisted of cells, ConA and culture medium containing the vehicle, DMSO only. […] For the testing of the methyl 1,3-O-isopropylidene-6-O-n-heptyl-α-D-fructofuranoside compound indomethacin and NDGA were used as controls. All cultures were run in triplicate.
Solutions of compounds of the invention in DMSO were prepared and dilutions were made in culture medium. Assay concentrations were either: 1, 2.5, 10, 25, 100, 300 and 750 ug/ml or 0.001, 0.01, 0.1, 1, 2.5, 10, 25 and 100 ug/ml.
Cultures were incubated for 3 days at 37° C. in a humidified atmosphere of 5% of CO2 in air. For the last 18 hours of culture, 1 uCi of ^3 H-thymidine was also incubated in each well. The cells were precipitated by a multi-channel harvester. The amount of ^3 H-thymidine incorporated by the cultures, as a measure of cell proliferation, was measured in a liquid scintillation counter. The amount of radioactive incorporation is proportional to the amount of cellular proliferation in individual wells. The students T test was used to determine the significance of the difference between experimental and control values.

[3] = ConA 1 ug/ml, read-out: % change from control, ConA blastogenic response
[4] = ConA 1 ug/ml, compound 100 ug/ml, read-out: % change from control, ConA blastogenic response
[5] = ConA 4 ug/ml, read-out: % change from control, ConA blastogenic response
[6] = ConA 4 ug/ml, compound 100 ug/ml, read-out: % change from control, ConA blastogenic response
[7] = ConA 1 ug/ml, 0.01 ug/ml, read-out: % Change from Control (Table II)
[8] = ConA 1 ug/ml, compound 0.01 ug/ml, read-out: % change from control, ConA blastogenic response
[9] = ConA 4 ug/ml, 0.01 ug/ml, read-out: % Change from Control (Table II)
[10] = ConA 4 ug/ml, compound 0.01 ug/ml, read-out: % change from control, ConA blastogenic response

SMILES	inhibition at 1 µg/mL [2, 3]	inhibition at 2.5 µg/mL [2, 3]	inhibition at 10 µg/mL [2, 3]	inhibition at 25 µg/mL [2, 3]	inhibition at 100 µg/mL [2, 4]	inhibition at 1 µg/mL [2, 5]	inhibition at 2.5 µg/mL [2, 5]	inhibition at 10 µg/mL [2, 5]	inhibition at 25 µg/mL [2, 5]	inhibition at 100 µg/mL [2, 6]	Mean O.D. Allogenic ([1]; 3 um)	Mean O.D. Syngeneic ([1]; 3 um)	Mean O.D. Allogenic ([1]; 10 um)	Mean O.D. Syngeneic ([1]; 10 um)	Mean O.D. Allogenic ([1]; 30 um)	Mean O.D. Syngeneic ([1]; 30 um)	Mean O.D. Allogenic ([1]; 100 um)	Mean O.D. Syngeneic ([1]; 100 um)	Mean O.D. Allogenic ([1]; 300 um)	Mean O.D. Syngeneic ([1]; 300 um)	further results
CCCCCCCCCCCCOC1C(C(O)CO)OC2OC(C)(C)OC21 [IIa, 1,2-O-Isopropylidene-3-O-n-dodecyl-α-D-glucofuranose]	21%	60%	95%	99%	100%	33%	50%	83%	94%	100%											% Change From Control, MLR ([1]; Table X, 3 ugm): -19%; % Change From Control, MLR ([1]; Table X, 10 ugm): -40%; Mean O.D. Allogenic ([1]; Table X, 10 ugm): 0.185 O.D.; Mean O.D. Syngeneic ([1]; Table X, 10 ugm): 0.135 O.D.; % Change From Control, MLR ([1]; Table X, 30 ugm): 23%; Mean O.D. Allogenic ([1]; Table X, 30 ugm): 0.158 O.D.; Mean O.D. Syngeneic ([1]; Table X, 30 ugm): 0.056 O.D.; % Change From Control, MLR ([1]; Table X, 100 ugm): -86%; % Change From Control, MLR ([1]; Table X, 300 ugm): -96%; strong non-dose dependent inhibition in MLR ([1]; several concentrations): greater than -50 % of control; inhibition at 100 µg/mL ([2]; 100 ug/ml, read-out: strong inhibition of ConA stimulated T lymphocyte proliferation): < 50%
CCCCC/C=C\COC[C@H]1O[C@@]2(OC)COC(C)(C)O[C@H]2[C@@H]1OC/C=C\CCCCC [If, methyl 1,3-O-isopropylidene-4,6-di-O-(cis,2-octenyl)-α-D-fructofuranoside]	14%	25%	74%	85%	4%	26%	42%	79%	87%	88%	0.195 O.D.	0.140 O.D.	0.199 O.D.	0.134 O.D.	0.199 O.D.	0.164 O.D.	0.102 O.D.	0.025 O.D.	0.032 O.D.	0.022 O.D.	inhibition at 3 µM ([1]; 3 um): 34%; inhibition at 10 µM ([1]; 10 um): 22%; inhibition at 30 µM ([1]; 30 um): 58%; inhibition at 100 µM ([1]; 100 um): 7%; inhibition at 300 µM ([1]; 300 um): 88%; inhibition at 0.01 µg/mL [2, 7]: 8%; inhibition at 0.01 µg/mL [2, 8]: -6%; inhibition at 0.1 µg/mL [2, 3]: 2%; inhibition at 0.01 µg/mL [2, 9]: 4%; inhibition at 0.01 µg/mL [2, 10]: 0%; inhibition at 0.1 µg/mL [2, 5]: 23%
CCCCCCCOC[C@H]1O[C@](COCC)(OC)[C@@H](OCC)[C@@H]1O [Ib, methyl 1,3-di-O-ethyl-6-O-heptyl-α-D-fructofuranoside]	72%	92%	96%	97%	99%	67%	68%	76%	86%	99%	0.319 O.D.	0.162 O.D.	0.382 O.D.	0.194 O.D.	0.372 O.D.	0.185 O.D.	0.353 O.D.	0.223 O.D.	0.265 O.D.	0.189 O.D.	inhibition at 3 µM ([1]; 3 um): 18%; inhibition at 10 µM ([1]; 10 um): 2%; inhibition at 30 µM ([1]; 30 um): 3%; inhibition at 100 µM ([1]; 100 um): 32%; inhibition at 300 µM ([1]; 300 um): 60%; inhibition at 0.01 µg/mL [2, 7]: 55%; inhibition at 0.01 µg/mL [2, 8]: 57%; inhibition at 0.1 µg/mL [2, 3]: 66%; inhibition at 0.01 µg/mL [2, 9]: 25%; inhibition at 0.01 µg/mL [2, 10]: 35%; inhibition at 0.1 µg/mL [2, 5]: 45%
